Values quoted from earlier work in patent US7271167B2, “Compounds, compositions, and methods” (Cytokinetics, Inc., priority 2002, dated 2007).

System: A549 cells
Settings: data provided by National Cancer Institute, Developmental Therapeutic Program

SMILES | GI50
COc1cccc2c1C(=O)c1c(O)c3c(c(O)c1C2=O)C[C@@](O)(C(=O)CO)C[C@@H]3O[C@H]1C[C@H](N)[C@H](O)[C@H](C)O1 [doxorubicin] | 63 nM
CC(=O)O[C@H]1C(=O)[C@@]2(C)[C@H]([C@H](OC(=O)c3ccccc3)[C@]3(O)C[C@H](OC(=O)[C@H](O)[C@@H](NC(=O)c4ccccc4)c4ccccc4)C(C)=C1C3(C)C)[C@]1(OC(C)=O)CO[C@@H]1C[C@@H]2O [paclitaxel] | 4 nM
NC(=O)NO [hydroxyurea] | 500000 nM
O=c1[nH]cc(F)c(=O)[nH]1 [5-fluorouracil] | 1000 nM
